Test system: Trichoderma reesei
Assay: T. reesei cell kill, CFU count on PDA plates
Assay type: cell-based
Settings: pH 4, 24 hours, 40° C.
Experimental: Sodium benzoate was added to separate T. reesei aliquots to a final concentration of 2.5 g/L sodium benzoate or 5 g/L sodium benzoate. The aliquots were then adjusted to pH 4 and incubated for 24 hours at 40° C. After 24 hours of incubation all aliquots were pH adjusted to 4.8 using 10% (w/w) sodium hydroxide. Each aliquot was then serially diluted with sterile water, spread plated onto PDA, and incubated at 25° C. The incubated PDA plates were then counted for CFU.
The aliquots were then adjusted to pH 4 and incubated for 24 hours at 40° C. After 24 hours of incubation all aliquots were pH adjusted to 4.8 using 10% (w/w) sodium hydroxide. Each aliquot was then serially diluted with sterile water, spread plated onto PDA, and incubated at 25° C. The incubated PDA plates were then counted for CFU.

## O=C([O-])c1ccccc1.[Na+] [sodium benzoate]
2.5 g/L sodium benzoate
  log reduction of viable cells: 5 log
5 g/L sodium benzoate
  CFU present after incubation: less than 10 CFU
  log reduction of viable cells: 7 log

— patent US8679824B2, “Fermentation broth formulations” (Danisco US Inc., priority 2009, dated 2014)
